7 molecules from the supplement of paper PMC11061612 can be followed below.

In assay [1] the test system is LU-139 (Small Cell Lung Carcinoma). The assay is described as follows: combination Emax (second highest fraction inhibited in the dose matrix, 72 h); higher = more inhibition; extreme values may be limits of the assay. In a few lines:
(§1)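 Cell lines in DMEM/F12 or RPMI with 10% FBS were plated in 1536-well plates, held 24 hours at 37°C, 5% CO2, then given two-drug dose matrices for 72 hours (DMSO typically 0.2%). Viability was read by CellTiter-Glo 2.0 luminescence and scaled as inhibition from 0 (vehicle wells) to 1 (blank wells). Combination Emax is the second-highest inhibition in the matrix; Bliss excess is observed combination effect minus expected EA + EB − EA·EB, EA and EB being single-agent effects.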

The subject of assay [2] is SW1116 (Colorectal Carcinoma). Described as above. In a few lines:
as §1

Assay [3] has as its system SUP-T1 (T-Lymphoblastic Leukemia). The description is as above. In a few lines: as §1
Assay [4] relates to NB14 (Neuroblastoma). The assay is described as above. The gist of the method: as §1
Assay [5] relates to SK-OV-3 (Ovarian Carcinoma). Described as above. The gist of the method:
as §1

The test system of assay [6] is K5 (Thyroid Gland Carcinoma). The description is as above. In a few lines:
as §1

The subject of assay [7] is SU-DHL-6 (B-Cell Non-Hodgkin's Lymphoma). The description is as above. In a few lines: as §1
A further assay concerns NCI-H2795 (Mesothelioma). Described as above. The gist of the method: as §1
Assay [8] has as its system OC-314 (Ovarian Carcinoma). The assay is described as above. In a few lines: as §1
The test system of assay [9] is HDLM-2 (Hodgkin's Lymphoma). The description is as above. The gist of the method:
as §1

The test system of the next assay is NCI-H2461 (Mesothelioma). The assay is described as follows: Bliss excess, mean over the matrix (fraction); higher = more synergy. In a few lines: as §1
For assay [10], the system named is SUP-T1 (T-Lymphoblastic Leukemia). The assay is described as above. The gist of the method: as §1
Assay [11] relates to NB14 (Neuroblastoma). The assay is described as above. In a few lines:
as §1

For assay [12], the system named is HARA (Squamous Cell Lung Carcinoma). The description is as above. The gist of the method: as §1
For assay [13], the system named is 8305C (Thyroid Gland Carcinoma). The description is as above. The gist of the method: as §1
Assay [14] has as its system K5 (Thyroid Gland Carcinoma). The description is as above. The gist of the method:
as §1

In a further assay the test system is Mewo (Melanoma). The description is as above. In a few lines:
as §1

Assay [15] relates to HDLM-2 (Hodgkin's Lymphoma). The assay is described as above. The gist of the method:
as §1

Assay [16] concerns EN (Endometrial Carcinoma). The description is as above. The gist of the method:
as §1

The test system of assay [17] is NCI-H69 (Small Cell Lung Carcinoma). The description is as above. The gist of the method:
as §1
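Wherever Bliss excess, mean over the matrix is given: after 72 h of two-drug dosing.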

For the molecule `O=C(c1cc(Cc2n[nH]c(=O)c3ccccc23)ccc1F)N1CCN(C(=O)C2CC2)CC1` [Olaparib] + COc1nnc2ccc(N3CCC(c4ccc(OCCN5CCN(C)C(=O)[C@H]5C)cc4)CC3)nn12 [AZD5153] (first compound max 10 µM, 7x7, partner max 1 µM), the “combination Emax” value amounted to 0.896 in assay [1]; 0.332 in assay [2]; 0.792 in assay [3]; 0.574 with NB14 (Neuroblastoma) [4]; 0.516 in [5]; 0.611 in assay [6]. For the same molecule, the “combination Emax” value in assay [7] was determined as 0.917; with NCI-H2795 (Mesothelioma), 0.651; in [8], 0.798; in [9], 0.356. Besides, the Bliss excess with NCI-H2461 (Mesothelioma) is -0.118; in [10], -0.0512; in the assay on NB14 (Neuroblastoma) [11] it was -0.004; in assay [12] it was -0.0775; in assay [13], -0.0634; in assay [14] it was -0.0392. In addition, the Bliss excess was -0.074 in the assay with Mewo (Melanoma), -0.0334 in assay [15], -0.0427 in [16] and 0.0144 in [17].
For the molecule `O=C(c1cc(Cc2n[nH]c(=O)c3ccccc23)ccc1F)N1CCN(C(=O)C2CC2)CC1` [Olaparib] + Cc1c2c(nn1C)CSCc1cc(n(C)n1)CSc1cc(c3ccccc3c1)OCCCc1c(C(=O)O)n(C)c3c-2c(Cl)ccc13 [AZD5991] (first compound max 10 µM, 7x7, partner max 1 µM), the “combination Emax” value in assay [1] was 0.132; in [2] it was 0.0456; in assay [3] it was 0.477; in the assay on NB14 (Neuroblastoma) [4], 0.595; in [5], 0.174; in [6] it was 0.0887. The “combination Emax” value amounted to 1 in assay [7], 0.748 with NCI-H2795 (Mesothelioma), 0.191 in assay [8] and 0.937 in [9]. Also, the Bliss excess is -0.0502 with NCI-H2461 (Mesothelioma); -0.0286 in [10]; -0.0183 with NB14 (Neuroblastoma) [11]; -0.0358 in [12]; -0.0391 in assay [13]; -0.0563 in [14]. The Bliss excess is -0.0652 in the assay with Mewo (Melanoma), -0.0194 in [15], -0.016 in assay [16] and 0.0008 in assay [17].
Turning to `CN(CCO)CC[C@H](CSc1ccccc1)Nc1ccc(S(=O)(=O)NC(=O)c2ccc(N3CCC([C@@H](O)c4ccccc4-c4ccc(Cl)cc4)CC3)cc2)cc1S(=O)(=O)C(F)(F)F` [AZD4320] + CC(=O)O[C@H]1C(=O)[C@@]2(C)[C@H]([C@H](OC(=O)c3ccccc3)[C@]3(O)C[C@H](OC(=O)[C@H](O)[C@@H](NC(=O)c4ccccc4)c4ccccc4)C(C)=C1C3(C)C)[C@]1(OC(C)=O)CO[C@@H]1C[C@@H]2O [Paclitaxel] (first compound max 1 µM, 7x7, partner max 3 µM), the “combination Emax” value in assay [1] amounted to 0.964; in [2], 0.586; in assay [3] it was 0.852; with NB14 (Neuroblastoma) [4] it was 1; in [5], 0.978; in [6], 0.94. In addition, the “combination Emax” value in [7] turned out to be 1; in the assay on NCI-H2795 (Mesothelioma), 0.837; in assay [8], 1; in assay [9], 1. Moreover, the Bliss excess in the assay with NCI-H2461 (Mesothelioma) is 0.0571; in assay [10] it was -0.024; in the assay on NB14 (Neuroblastoma) [11] it was 0.0064; in assay [12] it was 0.0253; in assay [13] it was 0.0435; in assay [14] it was 0.0018. Besides, the Bliss excess with Mewo (Melanoma) came out at 0.0548; in assay [15], 0.0159; in assay [16], 0.068; in assay [17] it was 0.0089.
As to `Cc1cc2ncnn2cc1Nc1ncc2c(n1)n(C1CCOCC1)c(=O)n2C` [AZD7648] + COc1cc([C@@H]2c3cc4c(cc3[C@@H](O[C@@H]3O[C@@H]5CO[C@@H](C)O[C@H]5[C@H](O)[C@H]3O)[C@H]3COC(=O)[C@H]23)OCO4)cc(OC)c1O [Etoposide] (first compound max 10 µM, 7x7, partner max 10 µM), the “combination Emax” value in assay [1] came out at 0.875; in assay [2] it was 0.192; in [3], 0.85; in the assay with NB14 (Neuroblastoma) [4], 0.912; in assay [5], 0.399; in assay [6], 0.64. Moreover, the “combination Emax” value in [7] was determined as 0.991; with NCI-H2795 (Mesothelioma) it was 0.686; in assay [8], 0.978; in [9] it was 0.715. Moreover, the Bliss excess with NCI-H2461 (Mesothelioma) was 0.0136; in assay [10], 0.07; with NB14 (Neuroblastoma) [11] it was 0.0704; in assay [12], 0.105; in assay [13] it was -0.0413; in assay [14], 0.1. Besides, the Bliss excess is 0.0524 in the assay on Mewo (Melanoma), -0.0015 in [15], 0.0565 in assay [16] and 0.0783 in [17].
With `C[C@@H](Oc1cc(-c2cnn(C3CCNCC3)c2)cnc1N)c1c(Cl)ccc(F)c1Cl` [Crizotinib] + CC1=C(C(=CC=C1)Cl)NC(=O)C2=CN=C(S2)NC3=CC(=NC(=N3)C)N4CCN(CC4)CCO [Dasatinib] (first compound max 10 µM, 7x7, partner max 2 µM), the “combination Emax” value in assay [1] amounted to 0.688; in assay [2], 0.619; in [3] it was 0.837; with NB14 (Neuroblastoma) [4] it was 0.976; in assay [5], 0.391; in [6], 0.81. Further, the “combination Emax” value in assay [7] worked out at 1; with NCI-H2795 (Mesothelioma), 0.918; in assay [8], 0.838; in assay [9], 0.226. The Bliss excess is -0.0186 with NCI-H2461 (Mesothelioma); -0.009 in assay [10]; -0.0123 with NB14 (Neuroblastoma) [11]; 0.0526 in [12]; 0.0122 in assay [13]; -0.0107 in assay [14]. Further, the Bliss excess in the assay on Mewo (Melanoma) was -0.0156; in assay [15], -0.0228; in [16] it was -0.0798; in assay [17], 0.0403.
Regarding `N#Cc1cnc(Nc2cc(NC[C@H]3CNCCO3)c(C(F)(F)F)cn2)cn1` [SRA737] + O=c1[nH]cc(F)c(=O)[nH]1 [5-Fluorouracil] (first compound max 10 µM, 7x7, partner max 20 µM), the “combination Emax” value in assay [1] was 0.356; in [2], 0.193; in [3] it was 0.662; with NB14 (Neuroblastoma) [4], 0.97; in assay [6], 0.451; in assay [7] it was 0.748. Further, the “combination Emax” value with NCI-H2795 (Mesothelioma) came to 0.759; in assay [8] it was 0.902; in assay [9], 0.645. For the same molecule, the Bliss excess is -0.0256 in the assay on NCI-H2461 (Mesothelioma); 0.0112 in [10]; 0.0321 with NB14 (Neuroblastoma) [11]; -0.0379 in assay [12]; -0.0326 in assay [13]; -0.0459 in assay [14]. For the same molecule, the Bliss excess with Mewo (Melanoma) is -0.0136; in [15], 0.0758; in [16], -0.0338; in assay [17], -0.0461.
With `N#Cc1cnc(Nc2cc(NC[C@H]3CNCCO3)c(C(F)(F)F)cn2)cn1` [SRA737] + Nc1ccn([C@@H]2O[C@H](CO)[C@@H](O)C2(F)F)c(=O)n1 [Gemcitabine] (first compound max 10 µM, 7x7, partner max 0.3 µM), the “combination Emax” value in assay [1] is 0.832; in [2] it was 0.649; in [3], 0.806; in the assay on NB14 (Neuroblastoma) [4], 1; in assay [5], 0.543; in [6] it was 0.689. The results for the “combination Emax” value (with NCI-H2795 (Mesothelioma); in assay [8]; in assay [9]) were 0.804, 0.979 and 0.854, respectively. The Bliss excess is -0.0309 with NCI-H2461 (Mesothelioma); -0.0658 in assay [10]; 0.0218 in the assay with NB14 (Neuroblastoma) [11]; -0.0013 in assay [12]; -0.0158 in assay [13]; 0.0428 in assay [14]. Moreover, the Bliss excess in the assay on Mewo (Melanoma) was -0.0047; in assay [15], 0.0526; in assay [16], -0.0331; in assay [17], -0.0077.
